In brackets after ≈: the same amount, converted by molar mass. Residues, ends and D or L forms follow the SMILES beside them.
Experiments:
MT-4 cells = test: Cytotoxicity to MT-4 cells (MTT method); format: cell-based; conditions: 12000 ng/ml to 24 ng/ml, 6 days
Procedure: Then test drugs were added. […] Cell growth was subsequently determined by the MTT method.

No.04 coronavirus [1] = test system: No.04 coronavirus
No.04 coronavirus [2] = test: microbe, parasite or virus in culture; conditions: Severe acute respiratory syndrome coronavirus

## CC[C@H](C)[C@H](NC(=O)[C@@H](NC(=O)[C@@H]1CCCN1C(=O)[C@H](CC(=O)O)NC(=O)[C@H](Cc1c[nH]cn1)NC(=O)[C@@H](NC(=O)[C@@H](N)CCSC)[C@@H](C)O)C(C)C)C(=O)N[C@@H](CO)C(=O)N[C@@H](CC(C)C)C(=O)N1CCC[C@H]1C(=O)N[C@H](C(=O)N[C@H](C(=O)O)[C@@H](C)O)[C@@H](C)O [HAb18G-AP-1] (H-MTHDPVISLPTT-OH)
MT-4 cells
  cell growth of MT-4 cells (in words): cell growth was not affected

## CC(C)C[C@H](NC(=O)[C@H](CCCCN)NC(=O)[C@@H](N)Cc1ccc(O)cc1)C(=O)N1CCC[C@H]1C(=O)NCC(=O)N[C@@H](Cc1c[nH]cn1)C(=O)N[C@@H](Cc1c[nH]cn1)C(=O)N[C@@H](Cc1c[nH]cn1)C(=O)N[C@@H](Cc1c[nH]cn1)C(=O)N[C@@H](Cc1ccc(O)cc1)C(=O)N[C@@H](CCCNC(=N)N)C(=O)N1CCC[C@H]1C(=O)O [HAb18G-AP-9] (H-YKLPGHHHHYRP-OH)
MT-4 cells
  cell growth of MT-4 cells (in words): cell growth was not affected

## N=C(N)NCCC[C@H](NC(=O)[C@H](Cc1c[nH]cn1)NC(=O)[C@H](Cc1c[nH]c2ccccc12)NC(=O)[C@H](Cc1c[nH]cn1)NC(=O)[C@H](CCCCN)NC(=O)[C@H](Cc1c[nH]cn1)NC(=O)[C@H](Cc1c[nH]cn1)NC(=O)[C@H](Cc1ccccc1)NC(=O)[C@@H]1CCCN1C(=O)[C@@H](N)Cc1ccc(O)cc1)C(=O)N1CCC[C@H]1C(=O)N[C@@H](CC(N)=O)C(=O)O [HAb18G-AP-6, Tyr Pro Phe His His Lys His Typ His Arg Pro Asn] (H-YPFHHKHWHRPN-OH)
MT-4 cells
  cell growth of MT-4 cells (in words): cell growth was not affected
No.04 coronavirus [1]; 24 h
  half-inhibitory concentration (IC50): 31.25 ± 0 mg/L
  minimum inhibitory concentration (MIC): 62.25 ± 0 mg/L (≈ 37.6 µM)

## Nc1nc(O)c2ncn(COC(CO)CO)c2n1 [Ganciclovir, ganciclovir]
No.04 coronavirus [1]; CPE method, 293 cells
  treatment index (TI): 256
No.04 coronavirus [2]; HEK293, read-out: half-inhibitory concentration (IC50)
  IC50: 11.7 mg/L (≈ 45.8 µM)
No.04 coronavirus [2]; read-out: minimum inhibitory concentration (MIC)
  MIC: 23.4 mg/L (≈ 91.8 µM)

From US20070003565A1 (priority 2003, published 2007)
